According to PubChem BioAssay AID2060884 (Molecular Pharmacology Branch, DTP, NCI, 2025):
“And” between values parts separate entries of the source, which are not always exact repeats. Equal values may be shown once. Each block holds one compound with its values, some of them ahead of it.

System: NCI-H929 complex spheroids, viability % test/control
Assay: Anticancer human tumor NCI-H929 cell line growth inhibition [RAS];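 also: compound exposure lasted seven days before viability was read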;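 as to viability, T/C: 100% = DMSO vehicle control viability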
Conditions: for viability, T/C: stronger effect = lower value
Outline: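 Multi-cell-type spheroids: tumor cells plus HUVEC endothelial cells and mesenchymal stem cells. RAS-pathway inhibitors were combined with targeted agents, each dosed in half-log steps down from clinical Cmax, or from 10 microM when Cmax was unknown.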

[1] = curve of first compound, second compound 0.0316 µM
[2] = curve of first compound, second compound 0.1 µM
[3] = curve of first compound, second compound 0.316 µM
[4] = curve of first compound, second compound 1 µM
[5] = curve of first compound, second compound 3.16 µM
[6] = curve of first compound, second compound 10 µM
[7] = second compound 0.0316 µM, first compound 0.00316 µM
[8] = second compound 0.0316 µM, first compound 0.01 µM
[9] = second compound 0.0316 µM, first compound 0.0316 µM
[10] = second compound 0.0316 µM, first compound 0.1 µM
[11] = second compound 0.0316 µM, first compound 0.316 µM
[12] = second compound 0.0316 µM, first compound 1 µM
[13] = second compound 0.1 µM, first compound 0.00316 µM
[14] = second compound 0.1 µM, first compound 0.01 µM
[15] = second compound 0.1 µM, first compound 0.0316 µM
[16] = second compound 0.1 µM, first compound 0.1 µM
[17] = second compound 0.1 µM, first compound 0.316 µM
[18] = second compound 0.1 µM, first compound 1 µM
[19] = second compound 0.316 µM, first compound 0.00316 µM
[20] = second compound 0.316 µM, first compound 0.01 µM
[21] = second compound 0.316 µM, first compound 0.0316 µM
[22] = second compound 0.316 µM, first compound 0.1 µM
[23] = second compound 0.316 µM, first compound 0.316 µM
[24] = second compound 0.316 µM, first compound 1 µM
[25] = second compound 1 µM, first compound 0.00316 µM
[26] = second compound 1 µM, first compound 0.01 µM
[27] = second compound 1 µM, first compound 0.0316 µM
[28] = second compound 1 µM, first compound 0.1 µM
[29] = second compound 1 µM, first compound 0.316 µM
[30] = second compound 1 µM, first compound 1 µM
[31] = second compound 3.16 µM, first compound 0.00316 µM
[32] = second compound 3.16 µM, first compound 0.01 µM
[33] = second compound 3.16 µM, first compound 0.0316 µM
[34] = second compound 3.16 µM, first compound 0.1 µM
[35] = second compound 3.16 µM, first compound 0.316 µM
[36] = second compound 3.16 µM, first compound 1 µM
[37] = second compound 10 µM, first compound 0.00316 µM
[38] = second compound 10 µM, first compound 0.01 µM
[39] = second compound 10 µM, first compound 0.0316 µM
[40] = second compound 10 µM, first compound 0.1 µM
[41] = second compound 10 µM, first compound 0.316 µM
[42] = second compound 10 µM, first compound 1 µM

IC50 [1]: > 1000 nM | IC50 [2]: > 1000 nM | IC50 [3]: > 1000 nM | IC50 [4]: > 1000 nM | IC50 [5]: 822 nM | IC50 [6]: 614 nM
Compound: O=C(c1ccc(F)c(F)c1Nc1ccc(I)cc1F)N1CC(O)([C@@H]2CCCCN2)C1 + C#Cc1c(F)ccc2cc(O)cc(-c3ncc4c(N5CC6CCC(C5)N6)nc(OCC56CCCN5CC(F)C6)nc4c3F)c12
viability, T/C [7]: 83.7% | viability, T/C [8]: 91.4% | viability, T/C [9]: 84.5% | viability, T/C [10]: 91.7% | viability, T/C [11]: 113% | viability, T/C [12]: 60.2% | viability, T/C [13]: 96.5% | viability, T/C [14]: 91.3% | viability, T/C [15]: 84.4% | viability, T/C [16]: 98.7% | viability, T/C [17]: 114% | viability, T/C [18]: 60% | viability, T/C [19]: 95% | viability, T/C [20]: 91% | viability, T/C [21]: 82.3% | viability, T/C [22]: 95% | viability, T/C [23]: 115% | viability, T/C [24]: 54% | viability, T/C [25]: 90.8% | viability, T/C [26]: 92.7% | viability, T/C [27]: 85.4% | viability, T/C [28]: 93.5% | viability, T/C [29]: 116% | viability, T/C [30]: 50.6% | viability, T/C [31]: 90.2% | viability, T/C [32]: 91.2% | viability, T/C [33]: 81% | viability, T/C [34]: 94.5% | viability, T/C [35]: 118% | viability, T/C [36]: 40.7% | viability, T/C [37]: 94% | viability, T/C [38]: 94.1% | viability, T/C [39]: 90.2% | viability, T/C [40]: 95.4% | viability, T/C [41]: 115% | viability, T/C [42]: 14.8%

IC50 (curve of first compound, second compound 0.00316 µM): > 10000 nM | IC50 (curve of first compound, second compound 0.01 µM): > 10000 nM | IC50 [1]: > 10000 nM | IC50 [2]: > 10000 nM | IC50 [3]: > 10000 nM | IC50 [4]: > 10000 nM
Compound: C[C@@H](NC(=O)c1ncnc(N)c1Cl)c1ncc(C(=O)Nc2cc(C(F)(F)F)c(Cl)cn2)s1 + C=CC(=O)N1CCN(c2nc(OCC3CCCN3C)nc3c(F)c(-c4nc(N)cc(C)c4C(F)(F)F)c(Cl)cc23)C(C)C1
viability, T/C (second compound 0.00316 µM, first compound 0.0316 µM): 106% | viability, T/C (second compound 0.00316 µM, first compound 0.1 µM): 95.9% | viability, T/C (second compound 0.00316 µM, first compound 0.316 µM): 101% | viability, T/C (second compound 0.00316 µM, first compound 1 µM): 97.9% | viability, T/C (second compound 0.00316 µM, first compound 3.16 µM): 101% | viability, T/C (second compound 0.00316 µM, first compound 10 µM): 115% | viability, T/C (second compound 0.01 µM, first compound 0.0316 µM): 91.8% | viability, T/C (second compound 0.01 µM, first compound 0.1 µM): 101% | viability, T/C (second compound 0.01 µM, first compound 0.316 µM): 92.3% | viability, T/C (second compound 0.01 µM, first compound 1 µM): 83.8% | viability, T/C (second compound 0.01 µM, first compound 3.16 µM): 91.2% | viability, T/C (second compound 0.01 µM, first compound 10 µM): 116% | viability, T/C [9]: 95% | viability, T/C [10]: 94.1% | viability, T/C [11]: 93% | viability, T/C [12]: 87.8% | viability, T/C (second compound 0.0316 µM, first compound 3.16 µM): 100% | viability, T/C (second compound 0.0316 µM, first compound 10 µM): 115% | viability, T/C [15]: 85.9% | viability, T/C [16]: 95.2% | viability, T/C [17]: 104% | viability, T/C [18]: 97.7% | viability, T/C (second compound 0.1 µM, first compound 3.16 µM): 103% | viability, T/C (second compound 0.1 µM, first compound 10 µM): 114% | viability, T/C [21]: 99.6% | viability, T/C [22]: 102% | viability, T/C [23]: 102% | viability, T/C [24]: 95% | viability, T/C (second compound 0.316 µM, first compound 3.16 µM): 97.3% | viability, T/C (second compound 0.316 µM, first compound 10 µM): 117% | viability, T/C [27]: 110% | viability, T/C [28]: 101% | viability, T/C [29]: 103% | viability, T/C [30]: 108% | viability, T/C (second compound 1 µM, first compound 3.16 µM): 103% | viability, T/C (second compound 1 µM, first compound 10 µM): 111%

IC50 [1]: > 1000 nM | IC50 [2]: > 1000 nM | IC50 [3]: > 1000 nM | IC50 [4]: > 1000 nM | IC50 [5]: > 1000 nM | IC50 [6]: > 1000 nM
Compound: C=CC(=O)N1CCN(c2nc(OCC3CCCN3C)nc3c(F)c(-c4nc(N)cc(C)c4C(F)(F)F)c(Cl)cc23)C(C)C1 (configuration not stated) + C#Cc1c(F)ccc2cc(O)cc(-c3ncc4c(N5CC6CCC(C5)N6)nc(OCC56CCCN5CC(F)C6)nc4c3F)c12
viability, T/C [7]: 102% | viability, T/C [8]: 97.5% | viability, T/C [9]: 99.1% | viability, T/C [10]: 97.3% | viability, T/C [11]: 108% | viability, T/C [12]: 103% | viability, T/C [13]: 98.8% | viability, T/C [14]: 101% | viability, T/C [15]: 102% | viability, T/C [16]: 106% | viability, T/C [17]: 107% | viability, T/C [18]: 112% | viability, T/C [19]: 96.1% | viability, T/C [20]: 104% | viability, T/C [21]: 101% | viability, T/C [22]: 104% | viability, T/C [23]: 106% | viability, T/C [24]: 110% | viability, T/C [25]: 95.8% | viability, T/C [26]: 104% | viability, T/C [27]: 107% | viability, T/C [28]: 105% | viability, T/C [29]: 101% | viability, T/C [30]: 112% | viability, T/C [31]: 103% | viability, T/C [32]: 99.8% | viability, T/C [33]: 103% | viability, T/C [34]: 104% | viability, T/C [35]: 106% | viability, T/C [36]: 115% | viability, T/C [37]: 104% | viability, T/C [38]: 101% | viability, T/C [39]: 100% | viability, T/C [40]: 105% | viability, T/C [41]: 99.6% | viability, T/C [42]: 104%

IC50 (curve of compound): 18.3 nM [middle of 4 runs]
Compound: Nc1ccn(C2OC(CO)C(O)C2(F)F)c(=O)n1 (configuration not stated)
viability, T/C (compound 0.00316 µM): 106% [middle of 4 runs] | viability, T/C (compound 0.0316 µM): 0.89% (2×) and 1.85% and 1.95% | viability, T/C (compound 0.1 µM): 1.62% [middle of 4 runs] | viability, T/C (compound 0.316 µM): 1.71% [middle of 4 runs] | viability, T/C (compound 1 µM): 1.37% [middle of 4 runs]
